{"source": "patent US12275734B1", "about": "“Pleuromutilin onium salt derivative containing a 3H-imidazo[4,5-c]pyridine side chain, and a preparation method and application thereof” (SHAANXI UNIVERSITY OF SCIENCE AND TECHNOLOGY, priority 2024, dated 2025)", "key": {"[1]": {"test_system": "E. coli (ATCC 25922)", "experiment": "Biofilm formation, crystal violet staining", "type": "cell-based", "protocol": "Quantification of biofilm using crystal violet staining:\nMRSA and E. coli cells were first adjusted to the logarithmic growth phase and diluted to […]. […] A blank control group without compound addition was set up. After incubation, the suspension was discarded and washed three times with 10 mM PBS buffer, and the biofilm was fixed with methanol for 15 minutes. After removing the methanol, 200 μL of 0.1% crystal violet was added to each well for staining for 30 minutes, and then the crystal violet was discarded and washed again with PBS three times. After the well plate was dried, 200 μL of 95% ethanol was added to each well to dissolve the fixed dye. […] This process allows for quantitative analysis of the ability of different concentrations of compound i to form biofilms."}, "[2]": {"test_system": "Staphylococcus aureus (MRSA, ATCC 33591)", "experiment": "Mouse MRSA systemic infection model, survival rate", "type": "in vivo", "details": "MRSA-infected mice, 5, 10, 20 mg/kg single intraperitoneal injection 1 hour after infection, 7-day survival", "protocol": "(§1) Establishment of a mouse model of MRSA systemic infection\n(1) Solution preparation and bacterial activation: Reference Example 15.\n(§2) (2) Pretreatment: All mice received cyclophosphamide treatment, with the first intraperitoneal injection of 150 mg/kg cyclophosphamide 4 days before infection and the second intraperitoneal injection of 100 mg/kg cyclophosphamide 1 day before infection.\n(3) Control group treatment: Mice in the blank control group received intraperitoneal injection of 0.9% saline.\n(4) Infection process: Mice were anesthetized with isoflurane and infected by intraperitoneal injection of Staphylococcus aureus (MRSA, ATCC 33591) at a concentration of 10^7 CFU/mL.\n(1) Experimental groups: The doses of compound i and valnemulin were 5, 10, and 20 mg/kg, respectively (the solvent was dimethyl sulfoxide: Tween-80: sterile water=1:0.5:9.5);\nA model control group (administered with a solvent after infection with bacteria) and a blank control group (administered with a solvent only without infection with bacteria) were set up, with 10 mice in each group, half of which were male and half were female.\n(2) Time point: Intraperitoneal injection was performed in the experimental group mice at 1 hour after infection.\n(3) Therapeutic dose: The mice in the experimental groups received intraperitoneal injection of 0.5 mL of compound i and valnemulin at different concentrations. […]"}, "[3]": {"test_system": "MRSA (ATCC 33591)", "experiment": "Bacterial cell morphology by FESEM", "type": "cell-based, S. aureus", "details": "4 hours", "protocol": "(§3) Observation of bacterial cell morphology using FESEM:\n(§4) First, the bacterial suspension was adjusted to OD600=0.5, and then the bacteria were treated with compound i at a final concentration of 1×MIC and 4×MIC at 37° C. for 4 hours, and a control group without compound addition was set up. After treatment, the bacteria were collected by high-speed centrifugation at 6000 rpm for 10 minutes and washed three times with 10 mM PBS buffer to remove residual culture medium and drugs. Subsequently, the bacteria were fixed with 2.5% glutaraldehyde at 4° C. for 12 hours to maintain the integrity of the cell structure, and then washed again with PBS buffer three times to remove excess glutaraldehyde.\n(§5) Next, the cells were subjected to a series of ethanol dehydration treatments (30%, 50%, 70%, 80%, 90% and 100% ethanol), and the treatment time of each concentration was sufficient to replace the intracellular water. After dehydration, the sample was resuspended in isoamyl acetate for 30 minutes and then centrifuged at 6000 rpm for 10 minutes to remove the supernatant. The sample was then dried and dotted on a stage with conductive glue, gold-plated to enhance the conductivity of the sample, and finally observed using a field emission scanning electron microscope (FESEM) to obtain high-resolution images of bacterial cell morphology and surface morphology. […]"}, "[4]": {"test_system": "E. coli (ATCC 25922)", "experiment": "Bacterial cell morphology by FESEM", "type": "cell-based", "details": "4 hours", "protocol": "as §3, §4, §5"}, "[5]": {"test_system": "MRSA (ATCC 33591)", "experiment": "Time-kill curve", "type": "cell-based, S. aureus", "details": "1×MIC to 8×MIC, 0-24 hours", "protocol": "Based on the MIC test results, the best performing active compounds were selected for time-kill curve studies.\n(2) Sampling: At 0, 2, 4, 6, 8, 12, and 24 hours, aspirate 100 μL of the mixture\n(3) Serial dilution and coating: Use 10 mM PBS buffer to dilute 10 times continuously, and evenly coat the diluted liquid on the agar plate\n(4) Incubation and counting: Incubate in a 37° C. incubator for 24 hours and count the colonies.\n(5) Sterilization curve drawing: Draw the curve of colony count change over time at different compound concentrations, and record the results as shown in FIG. 1."}, "[6]": {"test_system": "Staphylococcus aureus (MRSA, ATCC 33591)", "experiment": "Mouse MRSA systemic infection model, H&E tissue sections", "type": "in vivo", "details": "MRSA-infected mice", "protocol": "as §1, §2\n(4) Infection process: Mice were anesthetized with isoflurane and infected by intraperitoneal injection of Staphylococcus aureus (MRSA, ATCC 33591) at a concentration of 10^7 CFU/mL. […]\n(2) Processing: • (a) Time point: At the first hour after infection, mice in the experimental group received intraperitoneal injection of 0.5 mL of compounds of different concentrations, while mice in the control group received the same volume of solvent. • (b) Treatment time: […]\nPart II: The samples were fixed with 10% formalin buffer, then embedded in paraffin and sectioned. The sections were stained with hematoxylin and eosin (H&E) and then examined under an optical microscope."}, "[7]": {"details": "5 mg/kg compound i, intraperitoneal"}}}
{"smiles": "C=C[C@]1(C)C[C@@H](OC(=O)CSc2nc3cc[n+](Cc4ccc(C)cc4)cc3[nH]2)[C@]2(C)[C@H](C)CC[C@]3(CCC(=O)[C@H]32)[C@@H](C)[C@@H]1O", "note": "[Compound i, 5-(4-methylbenzyl)-2-((2-(((3aR,4R,5R,7S,8S,9R,9aS,12R)-8-hydroxy-4,7,9,12-tetramethyl-3-oxo-7-vinyldecahydro-4,9a-propancyclopenta[8]cyclo-5-yl)oxy)-2-oxoethyl)thio)-3H-imidazo[4,5-C]pyridine-5-ium]", "values": [{"measurement": "inhibition rate of biofilm formation", "setting": "[1]; 1×MIC", "value": 60.47, "unit": "%"}, {"measurement": "inhibition rate of biofilm formation", "setting": "[1]; 8×MIC", "value": 94.54, "unit": "%"}, {"measurement": "survival rate of mice", "setting": "[2]", "value": "significantly higher than the survival rate of mice given warnemulin"}, {"measurement": "bacterial cell morphology (FESEM)", "setting": "[3]; 1×MIC", "value": "showed an irregular shape"}, {"measurement": "bacterial cell morphology (FESEM)", "setting": "[3]; 4×MIC", "value": "obvious shrinkage or deformation"}, {"measurement": "bacterial cell morphology (FESEM)", "setting": "[4]; 1×MIC", "value": "depressions on the bacterial surface were observed"}, {"measurement": "bacterial cell morphology (FESEM)", "setting": "[4]; 4×MIC", "value": "obvious wrinkles and shrinkage on the bacterial surface"}, {"measurement": "bactericidal efficiency (time-kill curve) compared with retapamulin", "setting": "[5]", "value": "higher bactericidal efficiency"}, {"measurement": "kidney H&E histology", "setting": "[6]; [7]", "value": "returned to a normal state"}, {"measurement": "lung H&E histology", "setting": "[6]; [7]", "value": "no obvious pathological changes"}, {"measurement": "spleen H&E histology", "setting": "[6]; 5 mg/kg, after 7 days of treatment", "value": "immune response was weakened"}]}
